Test results as given in patent US8541573B2, “Substituted sulfonamide compounds” (Gruenenthal GmbH, priority 2008, dated 2013).

How the values were obtained:
human B1R = molecular target: T1, human B1R (Homo sapiens, UniProt P46663); experiment: Functional investigation on the bradykinin 1 receptor (B1R), cell-based fluorescent calcium-mobilization assay (FLIPR/Novostar), human; conditions: 10 μM test substance; CHO K1 cells stably transfected with human B1R gene; agonist Lys-Des-Arg9-bradykinin at EC80; % inhibition compared with maximum achievable inhibition; read-out: B1R antagonism, human [10 μM] % inhibition
T1 construct: expressed in transfected cells; host or cells: CHO K1 cells
T1 sequence (P46663 1-353): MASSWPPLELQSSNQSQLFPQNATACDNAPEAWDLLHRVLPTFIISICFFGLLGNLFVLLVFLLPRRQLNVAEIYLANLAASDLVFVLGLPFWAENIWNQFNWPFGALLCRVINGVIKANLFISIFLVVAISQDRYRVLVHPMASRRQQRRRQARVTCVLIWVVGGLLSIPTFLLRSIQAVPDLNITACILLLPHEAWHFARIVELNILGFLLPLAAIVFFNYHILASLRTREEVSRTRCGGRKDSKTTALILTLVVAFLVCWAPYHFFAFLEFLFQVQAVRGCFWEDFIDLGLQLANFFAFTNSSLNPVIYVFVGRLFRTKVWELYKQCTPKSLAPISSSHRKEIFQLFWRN
Method: (§1) The agonistic or antagonistic action of substances can be quantified on the bradykinin 1 receptor (B1R) of the human and rat species with ectopically expressing cell lines (CHO K1 cells) and with the aid of a Ca^2+-sensitive dyestuff (Fluo-4) in a fluorescent imaging plate reader (FLIPR). The figure in % activation is based on the Ca^2+ signal after addition of Lys-Des-Arg^9-bradykinin (0.5 nM) or Des-Arg^9-bradykinin (100 nM). Antagonists lead to a suppression of the Ca^2+ inflow after addition of the agonist. % inhibition compared with the maximum achievable inhibition is stated.
(§2) The agonistic or antagonistic action of substances can be determined on the bradykinin 1 receptor (B1R) of humans and rats by means of a cell-based flourescent calcium-mobilization assay. According to this assay agonist-induced increase of intracellular free Ca^2+ is quantified by means of a Ca^2+-sensitive dye (Fluo-4 type, Molecular Probes Europe BV, Leiden, Netherlands), in a Fluorescent Imaging Plate Reader (FLIPR, Molecular Devices, Sunnyvale, USA) and/or the Novostar (BMG Labtech GmbH, Offenburg, Germany).
(§3) Chinese hamster ovary cells (CHO K1 cells), which are stably transfected with the human B1R gene (hB1R cells) or with the B1R gene of rats (rB1R cells), are used. For functional investigations these cells are seeded into black 96-well plates with a clear bottom (BD Biosciences, Heidelberg, Germany or Greiner, Frickenhausen, Germany) in a density of 20,000-35,000 cells/well. The cells are incubated overnight in a humidified atmosphere at 37° C. and 5% CO2 in culture medium (hB1R cells: Nutrient Mixture Ham's F12, Gibco Invitrogen GmbH, Karlsruhe, Germany or DMEM, Sigma-Aldrich, Taufkirchen, Germany; rB1R cells: D-MEM/F12, Gibco Invitrogen GmbH, Karlsruhe, Germany) with 10 vol. % FBS (foetal bovine serum, Gibco Invitrogen GmbH, Karlsruhe, Germany).
(§4) On the following day the cells are loaded with the Ca^2+-sensitive dye Fluo-4-AM (Molecular Probes Europe BV, Leiden, Netherlands):
(§5) Method A: The medium of the cells is removed and cell plates are incubated with loading solution, which contains 2.13 μM Fluo-4-AM, 2.5 mM probenecid (Sigma-Aldrich, Taufkirchen, Germany), and 10 mM HEPES (Sigma-Aldrich, Taufkirchen, Germany) in HBSS buffer (Hank's buffered saline solution, Gibco Invitrogen GmbH, Karlsruhe, Germany) for 60 minutes at 37° C. After the plates are washed twice with HBSS buffer, HBSS buffer supplemented 0.1% BSA (bovine serum albumin; Sigma-Aldrich, Taufkirchen, Germany), 5.6 mM glucose and 0.05% gelatine (Merck KGaA, Darmstadt, Germany) is added. Cell plates are incubated for at least 20 minutes in the dark at room temperature before they are used for the Ca^2+ measurement in the FLIPR or Novostar.
(§6) Method B: The plates are washed with buffer A (15 mM HEPES, 80 mM NaCl, 5 mM KCl, 1.2 mM CaCl2, 0.7 mM MgSO4, 2 mg/ml glucose, 2.5 mM probenecid) and subsequently loaded with buffer A containing 2.4 μM Fluo-4-AM and 0.025% pluronic F127 (Sigma-Aldrich, Taufkirchen, Germany) for 60 minutes at 37° C. Cell plates are washed twice with buffer A. Then, buffer A supplemented with 0.05% BSA and 0.05% gelatine is added and cell plates are incubated in the dark at room temperature for at least 20 minutes before measurement in the FLIPR or Novostar is started.
(§7) The Ca^2+-dependent fluorescence is measured both before and after the addition of substances (λex=488 nm, λem=540 nm). For quantification of the effect the highest fluorescence intensity (FC, fluorescence counts) over time is given. The FLIPR protocol consists of two substance additions, done within the instrument while continuously monitoring the Ca^2+-dependent fluorescence at 540 nm. When the Novostar was used, one addition had to be done outside the instrument. Test substances (10 μM) are initially pipetted onto the cells and the intracellular Ca^2+ rise is compared with the control (hB1R: Lys-Des-Arg9-bradykinin>=50 nM; rB1R: Des-Arg9-bradykinin>=1 μM). […]

B1R of rats = molecular target: T2, B1R of rats (Rattus norvegicus, UniProt P97583); experiment: Functional investigation on the bradykinin 1 receptor (B1R), cell-based fluorescent calcium-mobilization assay (FLIPR/Novostar), rat; conditions: 10 μM test substance; CHO K1 cells stably transfected with rat B1R gene; agonist Des-Arg9-bradykinin at EC80; % inhibition compared with maximum achievable inhibition; read-out: B1R antagonism, rat [10 μM] % inhibition
T2 construct: expressed in transfected cells; host or cells: CHO K1 cells
T2 sequence (P97583 1-337): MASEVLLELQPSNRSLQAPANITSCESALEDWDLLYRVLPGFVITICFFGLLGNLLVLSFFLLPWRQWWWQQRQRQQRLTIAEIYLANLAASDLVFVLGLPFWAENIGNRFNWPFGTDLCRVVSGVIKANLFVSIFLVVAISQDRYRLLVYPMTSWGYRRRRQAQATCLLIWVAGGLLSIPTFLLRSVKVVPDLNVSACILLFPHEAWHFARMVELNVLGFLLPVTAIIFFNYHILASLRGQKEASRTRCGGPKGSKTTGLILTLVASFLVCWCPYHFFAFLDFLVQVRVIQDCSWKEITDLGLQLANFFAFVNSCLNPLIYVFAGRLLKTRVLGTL
Method: as §1, §2, §3, §4, §5, §6, §7

Row | SMILES | inhibition at 10 µM (human B1R) [%] | inhibition at 10 µM (B1R of rats) [%]
1 | COc1cc(C)c(S(=O)(=O)N(C)CCOCC(=O)N2CCC(CNC(=O)c3ccccc3)(N3CCN(C)CC3)CC2)c(C)c1 [Example 24, N-((1-(2-(2-(4-methoxy-N,2,6-trimethylphenylsulfonamido)ethoxy)acetyl)-4-(4-methylpiperazin-1-yl)piperidin-4-yl)methyl)benzamide] | 103 | 101
2 | CC(=O)NCC1(N2CCN(c3ccncc3)CC2)CCN(C(=O)COCC2CCc3ccccc3N2S(=O)(=O)c2ccc(Cl)c(Cl)c2)CC1 (stereo not shown) [Example 17, N-((1-(2-((1-(3,4-dichlorophenylsulfonyl)-1,2,3,4-tetrahydroquinolin-2-yl)methoxy)acetyl)-4-(4-(pyridin-4-yl)piperazin-1-yl)piperidin-4-yl)methyl)acetamide] | 104 | 101
3 | Cc1cc(S(=O)(=O)N2CCCCC2CCC(=O)N2CCC(CNC(=O)c3ccccc3)(N3CCN(C)CC3)CC2)c(C)cc1Cl (stereo not shown) [Example 6, N-((1-(3-(1-(4-chloro-2,5-dimethylphenylsulfonyl)piperidin-2-yl)propanoyl)-4-(4-methylpiperazin-1-yl)piperidin-4-yl)methyl)benzamide] | 99 | 24
4 | CN1CCN(C2(CNC(=O)Cc3ccccc3)CCN(C(=O)CC(NS(=O)(=O)c3ccc4ccccc4c3)c3ccccc3)CC2)CC1 (stereo not shown) [Example 8, N-((4-(4-methylpiperazin-1-yl)-1-(3-(naphthalene-2-sulfonamido)-3-phenylpropanoyl)piperidin-4-yl)methyl)-2-phenylacetamide] | 75 | 29
5 | COc1cc(C)c(S(=O)(=O)N2CCCCC2COCC(=O)N2CCC(CNC(=O)Cc3ccccc3)(N3CCN(C)CC3)CC2)c(C)c1 (stereo not shown) [Example 3, N-((1-(2-((1-(4-methoxy-2,6-dimethylphenylsulfonyl)piperidin-2-yl)methoxy)acetyl)-4-(4-methylpiperazin-1-yl)piperidin-4-yl)methyl)-2-phenylacetamide] | 103 | 104
6 | CN1CCN(C2(CNC(=O)c3ccncc3)CCN(C(=O)CC3CCCCN3S(=O)(=O)c3cccc(C(F)(F)F)c3)CC2)CC1 (stereo not shown) [Example 29, N-((4-(4-methylpiperazin-1-yl)-1-(2-(1-(3-(trifluoromethyl)phenylsulfonyl)-piperidin-2-yl)acetyl)piperidin-4-yl)methyl)isonicotinamide] | 67 | 33
7 | Cc1cc(S(=O)(=O)N2CCCCC2CCC(=O)N2CCC(CNC(=O)c3ccncc3)(N3CCN(C)CC3)CC2)c(C)cc1Cl (stereo not shown) [Example 26, N-((1-(3-(1-(4-chloro-2,5-dimethylphenylsulfonyl)piperidin-2-yl)propanoyl)-4-(4-methylpiperazin-1-yl)piperidin-4-yl)methyl)isonicotinamide] | 103 | 45
8 | CC(=O)NCC1(N2CCN(C)CC2)CCN(C(=O)CC(NS(=O)(=O)c2ccc3ccccc3c2)c2ccccc2)CC1 (stereo not shown) [Example 35, N-((4-(4-methylpiperazin-1-yl)-1-(3-(naphthalene-2-sulfonamido)-3-phenylpropanoyl)piperidin-4-yl)methyl)acetamide] | 89 | 102
9 | Cc1cc(S(=O)(=O)N2CCCCC2CCC(=O)N2CCC(CNC(=O)c3ccccn3)(N3CCN(C)CC3)CC2)c(C)cc1Cl (stereo not shown) [Example 9, N-((1-(3-(1-(4-chloro-2,5-dimethylphenylsulfonyl)piperidin-2-yl)propanoyl)-4-(4-methylpiperazin-1-yl)piperidin-4-yl)methyl)picolinamide] | 99 | 11

Now from value to molecule:

Row | inhibition at 10 µM (human B1R) [%] | inhibition at 10 µM (B1R of rats) [%] | SMILES
10 | 100 | 101 | COc1cc(C)c(S(=O)(=O)N(CCOCC(=O)N2CCC(CNC(C)=O)(N3CCN(c4ccncc4)CC3)CC2)C2CC2)c(C)c1 [Example 46, N-((1-(2-(2-(N-Cyclopropyl-4-methoxy-2,6-dimethylphenylsulfonamido)ethoxy)acetyl)-4-(4-(pyridin-4-yl)piperazin-1-yl)piperidin-4-yl)methyl)acetamide]
11 | 97 | 96 | COc1cc(C)c(S(=O)(=O)N(CCOCC(=O)N2CCC(CN3Cc4ccccc4C3=O)(N3CCN(C4CC4)CC3)CC2)C2CC2)c(C)c1 [Example 42, N-Cyclopropyl-N-(2-(2-(4-(4-cyclopropylpiperazin-1-yl)-4-((1-oxoisoindolin-2-yl)methyl)piperidin-1-yl)-2-oxoethoxy)ethyl)-4-methoxy-2,6-dimethylbenzenesulfonamide]
12 | 11 | 94 | CN1CCN(C2(CNC(=O)c3cccnc3)CCN(C(=O)CC3CCCCN3S(=O)(=O)c3cccc(C(F)(F)F)c3)CC2)CC1 (stereo not shown) [Example 39, N-((4-(4-methylpiperazin-1-yl)-1-(2-(1-(3-(trifluoromethyl)phenylsulfonyl)-piperidin-2-yl)acetyl)piperidin-4-yl)methyl)nicotinamide]
13 | 100 | 103 | COc1cc(C)c(S(=O)(=O)N(C)CCOCC(=O)N2CCC(CNC(=O)c3ccncc3)(N3CCN(C)CC3)CC2)c(C)c1C [Example 51, N-((1-(2-(2-(4-Methoxy-N,2,3,6-tetramethylphenylsulfonamido)ethoxy)acetyl)-4-(4-methylpiperazin-1-yl)piperidin-4-yl)methyl)isonicotinamide]
14 | 49 | 103 | CN1CCN(C2(CNC(=O)c3cccnc3)CCN(C(=O)COCC3CCc4ccccc4N3S(=O)(=O)c3ccc(Cl)c(Cl)c3)CC2)CC1 (stereo not shown) [Example 40, N-((1-(2-((1-(3,4-dichlorophenylsulfonyl)-1,2,3,4-tetrahydroquinolin-2-yl)methoxy)acetyl)-4-(4-methylpiperazin-1-yl)piperidin-4-yl)methyl)nicotinamide]
